Legend:
[1] = test system: E. coli; test: Light-activated killing of bacteria (E. coli); format: cell-based; details: for light-activated killing of bacteria: E. coli; for anti-bacterial activity using cool white light: LuzChem "cool white" light
Excerpt: No killing of bacteria in the dark has yet been observed.
Compound E was applied to a wet wipe surface and also to the surface of a filter for filtration of air or water.

[2] = test system: mammal models; details: in vivo

SMILES	light-activated killing of bacteria [1]	anti-bacterial activity using cool white light [1]	relative reactivity in bacterial killing ([1]; light-activated)	toxicity against mammal models [2]	light-activated killing on surfaces ([1]; applied to wet wipe surface and filter surface for air or water)	killing of bacteria in the dark ([1]; dark)	activity when surface immersed in E. Coli suspension ([1]; wet wipe / filter surface immersed in suspension of E. Coli)
Cn1cc[n+](CCCOc2ccc(C#Cc3ccc(C#Cc4ccc(OCCC[n+]5ccn(C)c5)cc4)cc3)cc2)c1 [Compound D]	excellent	excellent anti-bacterial activity	more reactive than Compound E	–	–	–	–
Cn1cc[n+](CCCCc2ccc(C#Cc3ccc(C#Cc4ccc(OCCC[n+]5ccn(C)c5)cc4)s3)cc2)c1 [Compound E]	excellent	excellent anti-bacterial activity	–	no toxicity	strong light-activated killing	No killing	activity was retained
